{"source": "patent US20260335294A1", "about": "“TREATING CONGENITAL DISORDERS OF GLYCOSYLATION” (Mayo Foundation for Medical Education and Research, priority 2022, published 2026)", "key": {"PMM": {"tested_on": "PMM", "conditions": "patient fibroblasts; cited from earlier work"}, "PMM2-CDG patients [1]": {"tested_on": "PMM2-CDG patients", "assay": "Carbohydrate deficient transferrin (CDT) in patients on epalrestat", "type": "in vivo, human", "conditions": "for CDT a-oligo/di-oligo ratio: C < 0.011; for CDT mono-oligo/di-oligo ratio: C < 0.06", "from_the_text": "(§1) The primary objective of the study was to assess the efficacy and safety of epalrestat treatment in 3 PMM2-CDG pediatric subjects prior to a planned Phase III clinical trial (Oral epalrestat therapy in Pediatric Subjects with PMM2-CDG, NCT04925960). The secondary objective was to assess the ability of epalrestat to improve clinically relevant aspects of PMM2-CDG such as increased urine polyols (sorbitol, mannitol), abnormal glycosylation (carbohydrate deficient transferrin), abnormal coagulation (ATIII=antithrombin III), impaired liver function (ALT=Alanine Transaminase, AST=Aspartate Transaminase), neurologic function (Brief Ataxia Rating Scale=BARS), severity of phenotype (Nijmegen Pediatric CDG Rating Scale=NPCRS). The ability of epalrestat to inhibit polyol production was monitored by evaluating urine polyol levels (sorbitol, mannitol), which are elevated in PMM2-CDG. Next, carbohydrate deficient transferrin, which is abnormal in PMM2-CDG, was evaluated in order to assess improvement of glycosylation following epalrestat treatment. CDT mono-oligo/dioligo ratio and a-oligo/dioligo ratio are used to evaluate glycosylation abnormalities. Transferrin normally occurs with two glycan chains (di-oligo). In the case of glycosylation abnormalities, glycan chains are missing (A-oligo transferrin has no glycan chains, mono-oligo has one glycan chain, di-oligo has two glycan chains). The higher ratio of a-oligo/di-oligo and mono-oligo/di-oligo indicate glycosylation abnormalities are present. Therefore, improvement in a-oligo/di-oligo and mono-oligo/di-oligo ratios can be used to monitor improvement or worsening of glycosylation status. Changes in the liver enzymes AST, ALT, which are frequently elevated in PMM2-CDG, were monitored both as part of a safety study and as part of monitoring clinical improvement in coagulation. Neurologic improvement was assessed by modified BARS scores in 2 patients (3rd patient was not eligible for the test due to age at the start of the trial). NPCRS was assessed at every visit to assess changes in the severity of the patients' phenotype. Additionally, the frequency of adverse events, changes in vital signs, complete blood count, and changes in BMI were monitored.\n(§2) Two patients were started on epalrestat on single patient investigational new drug (IND) (P5 IRB: 19-010017; IND #145262; P6 Protocol PMM2-CDG-001/A). Epalrestat was initiated on the parents' own initiative in the third patient (P7). Two patients were in their second year of epalrestat treatment, while the third, was in the 3rd year of treatment. Physical, neurological, and biochemical examinations were performed in 3 PMM2-CDG patients at baseline, and at every three months after the start of the epalrestat treatment. Patients underwent NPCRS phenotype severity assessment and biological sampling at every visit. Epalrestat (Ono Pharmaceuticals, Osaka, Japan) was taken orally 3 times per day (TID) before meals in a divided dose, with dosage escalation throughout the treatment. The pharmacological profile of epalrestat was as described elsewhere (Ligezka et al, Ann. Neurol., 90(6):887-900 (2021)). The starting dosage in P5 and P6 was 0.8 mg/kg/day, while P7 was started on 0.5 mg/kg/day due to their young age. P7 dosage was increased to 0.8 mg/day after a month, once safety was established. Blood and urine samples were collected routinely. Urine polyols, carbohydrate deficient transferrin (CDT), anti-thrombin III (ATIII), liver enzymes (ALT, AST), and complete blood count (CBC) were performed. Modified Brief Ataxia Rating Scale was used to assess ataxia in the 2 patients (P5, P6; P7 was not eligible for the test due to age). The modified BARS scale included Archimedes spiral test, but not the abnormalities of the ocular pursuit system and the scale range was 0-54. Goal attainment scale (GAS) was administered as described per study protocol (ClinicalTrials.gov Identifier: NCT04199000). […]"}, "PMM2-CDG fibroblasts": {"tested_on": "PMM2-CDG fibroblasts", "conditions": "cited from earlier work"}, "PMM2-CDG patients [2]": {"tested_on": "PMM2-CDG patients", "assay": "Safety and tolerability of epalrestat in pediatric patients", "type": "in vivo, human", "method": "The primary objective of the study was to assess the efficacy and safety of epalrestat treatment in 3 PMM2-CDG pediatric subjects prior to a planned Phase III clinical trial (Oral epalrestat therapy in Pediatric Subjects with PMM2-CDG, NCT04925960). […] The ability of epalrestat to inhibit polyol production was monitored by evaluating urine polyol levels (sorbitol, mannitol), which are elevated in PMM2-CDG. Next, carbohydrate deficient transferrin, which is abnormal in PMM2-CDG, was evaluated in order to assess improvement of glycosylation following epalrestat treatment. […] Changes in the liver enzymes AST, ALT, which are frequently elevated in PMM2-CDG, were monitored both as part of a safety study and as part of monitoring clinical improvement in coagulation. Neurologic improvement was assessed by modified BARS scores in 2 patients (3rd patient was not eligible for the test due to age at the start of the trial). NPCRS was assessed at every visit to assess changes in the severity of the patients' phenotype. Additionally, the frequency of adverse events, changes in vital signs, complete blood count, and changes in BMI were monitored. […]"}, "PMM2-CDG patients [3]": {"tested_on": "PMM2-CDG patients", "assay": "Modified Brief Ataxia Rating Scale (BARS) in patients on epalrestat", "type": "in vivo, human", "from_the_text": "as §1, §2"}, "aldose reductase (AR)": {"tested_on": "aldose reductase (AR)", "conditions": "role: inhibitor; cited from earlier work"}, "PMM2-CDG patients [4]": {"tested_on": "PMM2-CDG patients", "assay": "Nijmegen Pediatric CDG Rating Scale (NPCRS) in patients on epalrestat", "type": "in vivo, human", "from_the_text": "as §1, §2"}, "[5]": {"conditions": "P7, Baseline column: first available results 3 months after starting treatment, 0.5, 0.8 mg/kg day"}}, "note": "Marks after values point to notes of the source that are not given here.", "data": [{"smiles": "CC(/C=C1\\SC(=S)N(CC(=O)O)C1=O)=C\\c1ccccc1", "note": "[epalrestat]", "values": [{"measurement": "PMM enzymatic activity", "setting": "PMM", "result": "increase"}, {"measurement": "CDT a-oligo/di-oligo ratio", "setting": "PMM2-CDG patients [1]; P5, 12 months, 1.5 mg/kg day, baseline 0.005", "result": 0.003}, {"measurement": "CDT mono-oligo/di-oligo ratio", "setting": "PMM2-CDG patients [1]; P5, 12 months, 1.5 mg/kg day, baseline 0.09", "result": 0.06}, {"measurement": "CDT a-oligo/di-oligo ratio", "setting": "PMM2-CDG patients [1]; P5, 24 months, 2 mg/kg day, baseline 0.005", "result": 0.010}, {"measurement": "CDT mono-oligo/di-oligo ratio", "setting": "PMM2-CDG patients [1]; P5, 24 months, 2 mg/kg day, baseline 0.09", "result": 0.09}, {"measurement": "CDT a-oligo/di-oligo ratio", "setting": "PMM2-CDG patients [1]; P5, 28 months, 3 mg/kg day, baseline 0.005", "result": 0.08}, {"measurement": "CDT mono-oligo/di-oligo ratio", "setting": "PMM2-CDG patients [1]; P5, 28 months, 3 mg/kg day, baseline 0.09", "result": 0.07}, {"measurement": "CDT", "setting": "PMM2-CDG patients [1]; P5, words", "result": "Normalization of CDT"}, {"measurement": "CDT a-oligo/di-oligo ratio", "setting": "PMM2-CDG patients [1]; P6, 12 months, 1.5 mg/kg day, baseline 0.196", "result": 0.111}, {"measurement": "CDT mono-oligo/di-oligo ratio", "setting": "PMM2-CDG patients [1]; P6, 12 months, 1.5 mg/kg day, baseline 0.69", "result": 0.43}, {"measurement": "CDT a-oligo/di-oligo ratio", "setting": "PMM2-CDG patients [1]; P6, 18 months, 3 mg/kg day, baseline 0.196", "result": 0.105}, {"measurement": "CDT mono-oligo/di-oligo ratio", "setting": "PMM2-CDG patients [1]; P6, 18 months, 3 mg/kg day, baseline 0.69", "result": 0.47}, {"measurement": "CDT", "setting": "PMM2-CDG patients [1]; P6, 18 months, escalating doses, words", "result": "significant improvement in CDT with a steady trend towards normalization"}, {"measurement": "CDT a-oligo/di-oligo ratio", "setting": "PMM2-CDG patients [1]; P7, 12 months, 1.5 mg/kg day", "result": 1.033}, {"measurement": "CDT mono-oligo/di-oligo ratio", "setting": "PMM2-CDG patients [1]; P7, 12 months, 1.5 mg/kg day", "result": 1.58}, {"measurement": "CDT a-oligo/di-oligo ratio", "setting": "PMM2-CDG patients [1]; [5]", "result": "0.919#"}, {"measurement": "CDT mono-oligo/di-oligo ratio", "setting": "PMM2-CDG patients [1]; [5]", "result": "1.60#"}, {"measurement": "CDT", "setting": "PMM2-CDG patients [1]; P7, one-year mark, words", "result": "slight improvement"}, {"measurement": "CDT", "setting": "PMM2-CDG patients [1]; overall, words", "result": "improvement"}, {"measurement": "overall glycosylation as assessed by glycoproteomics", "setting": "PMM2-CDG fibroblasts; PMM2-CDG fibroblasts", "result": "overall glycosylation improvement"}, {"measurement": "glycosylation in vitro", "setting": "PMM2-CDG fibroblasts; PMM2-CDG, Ligezka et al 2021", "result": "improved glycosylation"}, {"measurement": "tolerability of escalating doses", "setting": "PMM2-CDG patients [2]; three pediatric patients P5-7", "result": "well-tolerated"}, {"measurement": "side-effects", "setting": "PMM2-CDG patients [2]; three pediatric patients P5-7, oral TID, long-term", "result": "No side-effects were observed"}, {"measurement": "Modified BARS (max 54)", "setting": "PMM2-CDG patients [3]; P5, 12 months, 1.5 mg/kg day, baseline 39", "result": 29}, {"measurement": "Modified BARS (max 54)", "setting": "PMM2-CDG patients [3]; P5, 24 months, 2 mg/kg day, baseline 39", "result": 33}, {"measurement": "Modified BARS (max 54)", "setting": "PMM2-CDG patients [3]; P5, 28 months, 3 mg/kg day, baseline 39", "result": 30}, {"measurement": "ataxia (modified BARS scores)", "setting": "PMM2-CDG patients [3]; P5, P6, words", "result": "improvement in ataxia"}, {"measurement": "Modified BARS (max 54)", "setting": "PMM2-CDG patients [3]; P6, 12 months, 1.5 mg/kg day, baseline 45", "result": 29}, {"measurement": "Modified BARS (max 54)", "setting": "PMM2-CDG patients [3]; P6, 18 months, 3 mg/kg day, baseline 45", "result": 27}, {"measurement": "mode of inhibition of AR", "setting": "aldose reductase (AR)", "result": "non-competitive inhibitor"}, {"measurement": "Total NPCRS (max 78)", "setting": "PMM2-CDG patients [4]; P5, 12 months, 1.5 mg/kg day, baseline 24", "result": 20}, {"measurement": "Total NPCRS (max 78)", "setting": "PMM2-CDG patients [4]; P5, 24 months, 2 mg/kg day, baseline 24", "result": 18}, {"measurement": "Total NPCRS (max 78)", "setting": "PMM2-CDG patients [4]; P5, 28 months, 3 mg/kg day, baseline 24", "result": 18}, {"measurement": "Phenotype severity (NPCRS)", "setting": "PMM2-CDG patients [4]; P5, P7 improved, words", "result": "improvement was noted in 2 out of 3 patients"}, {"measurement": "Total NPCRS (max 78)", "setting": "PMM2-CDG patients [4]; P6, 12 months, 1.5 mg/kg day, baseline 19", "result": 19}, {"measurement": "Total NPCRS (max 78)", "setting": "PMM2-CDG patients [4]; P6, 18 months, 3 mg/kg day, baseline 19", "result": 18}, {"measurement": "Total NPCRS (max 78)", "setting": "PMM2-CDG patients [4]; P7, 12 months, 1.5 mg/kg day, baseline 18", "result": 15}]}]}
